Assay results published in patent US20100256183A1, “FUNGICIDAL 2-ALKYLTHIO-2-QUINOLINYLOXY-ACETAMIDE DERIVATIVES” (priority 2007, published 2010).
Read-outs that look alike come from different tables or passages of the source.

Columns and labels:
Plasmopara viticola = test: Leaf disk assay, Plasmopara viticola (downy mildew of grapevine); assay type: in vivo; settings: foliar, 168 h, read-out: control of fungal infection
[1] = tested on: Erysiphe graminis f.sp. tritici; test: Leaf disk assay, Erysiphe graminis f.sp. tritici (wheat powdery mildew); assay type: in vivo; settings: Blumeria graminis, foliar, 96 h, read-out: control of fungal infection
Pyricularia oryzae = test: whole plant or invertebrate; assay type: in vivo; settings: foliar, 96 h, read-out: control of fungal infection
Septoria nodorum = test: Leaf disk assay, Septoria nodorum (wheat glume blotch); assay type: in vivo; settings: for pest or weed control at 200 ppm: Parastagonospora nodorum, foliar, 96 h, read-out: control of fungal infection
Phytophthora infestans = test: whole plant or invertebrate; assay type: in vivo; settings: in Solanum lycopersicum, foliar, 96 h, read-out: control of fungal infection
Pythium ultimum = Pythium ultimum (damping off) growth inhibition in potato dextrose broth, photometric; assay type: cell-based; settings: Globisporangium ultimum, read-out: control of fungal infection
[2] = 200 ppm, grapevine leaf disks, preventive, seven days after inoculation
[3] = 200 ppm, wheat leaf segments, preventive, four days after inoculation
[4] = 20 ppm, preventive, four days after inoculation
[5] = 60 ppm, preventive, four days after inoculation
[6] = 200 ppm, preventive, four days after inoculation
[7] = 20 ppm, inhibition of growth after 48 hours at 24° C.

Compound: C#CC(C)(CC)NC(=O)C(Oc1cc(C)c2ncc(Br)cc2c1)SC (centres unmarked) [7(4), 2-(3-Bromo-8-methyl-quinolin-6-yloxy)-N-(1-ethyl-1-methyl-prop-2-ynyl)-2-methylsulfanyl-acetamide]
- pest or weed control at 200 ppm (Plasmopara viticola; [2]): ≥ 60%
- pest or weed control at 200 ppm [1, 3]: ≥ 60%
- pest or weed control at 200 ppm (Pyricularia oryzae): ≥ 60%
- pest or weed control at 200 ppm (Septoria nodorum; [3]): ≥ 60%

Compound: COCC#CC(C)(C)NC(=O)C(Oc1cc(C)c2ncc(Cl)cc2c1)SC (centres unmarked) [19(4), 2-(3-Chloro-8-methyl-quinolin-6-yloxy)-N-(4-methoxy-1,1-dimethyl-but-2-ynyl)-2-methylsulfanyl-acetamide]
- pest or weed control at 200 ppm (Plasmopara viticola): ≥ 60%
- pest or weed control at 200 ppm [1]: ≥ 60%
- pest or weed control at 200 ppm (Phytophthora infestans): ≥ 60%
- inhibition of growth at 20 ppm (Pythium ultimum; 48 h): ≥ 60%

Compound: CC#CC(C)(C)NC(=O)C(Oc1cc(C)c2ncc(Cl)cc2c1)SC (centres unmarked) [18(4), 2-(3-Chloro-8-methyl-quinolin-6-yloxy)-N-(1,1-dimethyl-but-2-ynyl)-2-methylsulfanyl-acetamide]
- pest or weed control at 200 ppm (Plasmopara viticola): ≥ 60%
- pest or weed control at 200 ppm [1]: ≥ 60%
- pest or weed control at 200 ppm (Pyricularia oryzae): ≥ 60%
- pest or weed control at 200 ppm (Septoria nodorum): ≥ 60%
- pest or weed control at 200 ppm (Phytophthora infestans): ≥ 60%
- inhibition of growth at 20 ppm (Pythium ultimum; 48 h): ≥ 60%

Compound: CSC(Oc1cc(C)c2ncc(Br)cc2c1)C(=O)NC(C)(C)C#CCO (centres unmarked) [30(4), 2-(3-Bromo-8-methyl-quinolin-6-yloxy)-N-(4-hydroxy-1,1-dimethyl-but-2-ynyl)-2-methylsulfanyl-acetamide]
- pest or weed control at 200 ppm [1]: ≥ 60%
- pest or weed control at 200 ppm (Pyricularia oryzae): ≥ 60%
- pest or weed control at 200 ppm (Septoria nodorum): ≥ 60%
- pest or weed control at 200 ppm (Phytophthora infestans): ≥ 60%
- inhibition of growth at 20 ppm (Pythium ultimum; 48 h): ≥ 60%

Compound: C#CC(C)(C)NC(=O)C(Oc1cc(C)c2ncc(Cl)cc2c1)SC (centres unmarked) [Compound 17(4), 2-(3-Chloro-8-methyl-quinolin-6-yloxy)-N-(1,1-dimethyl-prop-2-ynyl)-2-methylsulfanyl-acetamide]
- pest or weed control at 200 ppm (Plasmopara viticola; [2]): ≥ 60%
- pest or weed control at 200 ppm [1, 3]: ≥ 60%
- pest or weed control at 200 ppm (Pyricularia oryzae): ≥ 60%
- Efficacy (%) (Septoria nodorum; [4]): 80%
- Efficacy (%) (Septoria nodorum; [5]): 100%
- Efficacy (%) (Septoria nodorum; [6]): 100%
- pest or weed control at 200 ppm (Septoria nodorum; [3]): ≥ 60%
- pest or weed control at 200 ppm (Phytophthora infestans): ≥ 60%
- inhibition of growth at 20 ppm (Pythium ultimum; [7]): ≥ 60%

Compound: COCCOCCC#CC(C)(C)NC(=O)C(Oc1cc(C)c2ncc(Br)cc2c1)SC (centres unmarked) [25(4), 2-(3-Bromo-8-methyl-quinolin-6-yloxy)-N-[5-(2-methoxy-ethoxy)-1,1-dimethyl-pent-2-ynyl]-2-methylsulfanyl-acetamide]
- pest or weed control at 200 ppm (Plasmopara viticola): ≥ 60%
- pest or weed control at 200 ppm (Phytophthora infestans): ≥ 60%
- inhibition of growth at 20 ppm (Pythium ultimum; 48 h): ≥ 60%

Compound: CCOCC#CC(C)(C)NC(=O)C(Oc1cc(C)c2ncc(Br)cc2c1)SC (centres unmarked) [22(4), 2-(3-Bromo-8-methyl-quinolin-6-yloxy)-N-(4-ethoxy-1,1-dimethyl-but-2-ynyl)-2-methylsulfanyl-acetamide]
- pest or weed control at 200 ppm (Plasmopara viticola): ≥ 60%

Compound: C=CCOCC#CC(C)(C)NC(=O)C(Oc1cc(C)c2ncc(Br)cc2c1)SC (centres unmarked) [28(4), N-(4-Allyloxy-1,1-dimethyl-but-2-ynyl)-2-(3-bromo-8-methyl-quinolin-6-yloxy)-2-methylsulfanyl-acetamide]
- pest or weed control at 200 ppm [1]: ≥ 60%
- pest or weed control at 200 ppm (Septoria nodorum): ≥ 60%
- pest or weed control at 200 ppm (Phytophthora infestans): ≥ 60%
- inhibition of growth at 20 ppm (Pythium ultimum; 48 h): ≥ 60%

Compound: COCCC#CC(C)(C)NC(=O)C(Oc1cc(C)c2ncc(Cl)cc2c1)SC (centres unmarked) [21(4), 2-(3-Chloro-8-methyl-quinolin-6-yloxy)-N-(5-methoxy-1,1-dimethyl-pent-2-ynyl)-2-methylsulfanyl-acetamide]
- pest or weed control at 200 ppm (Plasmopara viticola): ≥ 60%
- pest or weed control at 200 ppm [1]: ≥ 60%
- pest or weed control at 200 ppm (Phytophthora infestans): ≥ 60%
- inhibition of growth at 20 ppm (Pythium ultimum; 48 h): ≥ 60%

Compound: C#CCOCC#CC(C)(C)NC(=O)C(Oc1cc(C)c2ncc(Br)cc2c1)SC (centres unmarked) [29(4), 2-(3-Bromo-8-methyl-quinolin-6-yloxy)-N-(1,1-dimethyl-4-prop-2-ynyloxy-but-2-ynyl)-2-methylsulfanyl-acetamide]
- pest or weed control at 200 ppm [1]: ≥ 60%
- pest or weed control at 200 ppm (Pyricularia oryzae): ≥ 60%

Compound: COCC#CC(C)(C)NC(=O)C(Oc1cc(C)c2ncc(Br)cc2c1)SC (centres unmarked) [3(4), 2-(3-Bromo-8-methyl-quinolin-6-yloxy)-N-(4-methoxy-1,1-dimethyl-but-2-ynyl)-2-methylsulfanyl-acetamide]
- pest or weed control at 200 ppm (Plasmopara viticola): ≥ 60%
- pest or weed control at 200 ppm [1]: ≥ 60%
- pest or weed control at 200 ppm (Pyricularia oryzae): ≥ 60%
- pest or weed control at 200 ppm (Septoria nodorum): ≥ 60%
- pest or weed control at 200 ppm (Phytophthora infestans): ≥ 60%

Compound: C#CC(C)(C)NC(=O)C(Oc1cc(CC)c2ncc(Br)cc2c1)SC (centres unmarked) [33(4), 2-(3-Bromo-8-ethyl-quinolin-6-yloxy)-N-(1,1-dimethyl-prop-2-ynyl)-2-methylsulfanyl-acetamide]
- pest or weed control at 200 ppm (Plasmopara viticola; [2]): ≥ 60%
- pest or weed control at 200 ppm [1, 3]: ≥ 60%
- pest or weed control at 200 ppm (Pyricularia oryzae): ≥ 60%
- pest or weed control at 200 ppm (Septoria nodorum; [3]): ≥ 60%
- inhibition of growth at 20 ppm (Pythium ultimum; [7]): ≥ 60%

Compound: CCC#CC(C)(C)NC(=O)C(Oc1cc(C)c2ncc(Cl)cc2c1)SC (centres unmarked) [20(4), 2-(3-Chloro-8-methyl-quinolin-6-yloxy)-N-(1,1-dimethyl-pent-2-ynyl)-2-methylsulfanyl-acetamide]
- pest or weed control at 200 ppm (Phytophthora infestans): ≥ 60%

Compound: CSC(Oc1cc(C)c2ncc(Br)cc2c1)C(=O)NC(C)(C)C#C/C=C/CO (centres unmarked) [24(4), 2-(3-Bromo-8-methyl-quinolin-6-yloxy)-N-((E)-6-hydroxy-1,1-dimethyl-hex-4-en-2-ynyl)-2-methylsulfanyl-acetamide]
- pest or weed control at 200 ppm (Plasmopara viticola; [2]): ≥ 60%
- pest or weed control at 200 ppm [1, 3]: ≥ 60%
- pest or weed control at 200 ppm (Phytophthora infestans): ≥ 60%
- inhibition of growth at 20 ppm (Pythium ultimum; [7]): ≥ 60%

Compound: COCOCC#CC(C)(C)NC(=O)C(Oc1cc(C)c2ncc(Br)cc2c1)SC (centres unmarked) [31(4), 2-(3-Bromo-8-methyl-quinolin-6-yloxy)-N-(4-methoxymethoxy-1,1-dimethyl-but-2-ynyl)-2-methylsulfanyl-acetamide]
- pest or weed control at 200 ppm [1]: ≥ 60%
- pest or weed control at 200 ppm (Phytophthora infestans): ≥ 60%
- inhibition of growth at 20 ppm (Pythium ultimum; 48 h): ≥ 60%

Compound: CSC(Oc1cc(C)c2ncc(Br)cc2c1)C(=O)NC(C)(C)C#CC(C)(O)CCl (centres unmarked) [27(4), 2-(3-Bromo-8-methyl-quinolin-6-yloxy)-N-(5-chloro-4-hydroxy-1,1,4-trimethyl-pent-2-ynyl)-2-methylsulfanyl-acetamide]
- pest or weed control at 200 ppm (Plasmopara viticola): ≥ 60%
- pest or weed control at 200 ppm [1]: ≥ 60%

Compound: C#CC(C)(C)NC(=O)C(Oc1ccc2ncc(Cl)cc2c1)SC (centres unmarked) [Compound 1(23), reference compound]
- Efficacy (%) (Septoria nodorum; [4]): 0%
- Efficacy (%) (Septoria nodorum; [5]): 0%
- Efficacy (%) (Septoria nodorum; [6]): 0%

Compound: COCCC#CC(C)(C)NC(=O)C(Oc1cc(C)c2ncc(Br)cc2c1)SC (centres unmarked) [5(4), 2-(3-Bromo-8-methyl-quinolin-6-yloxy)-N-(5-methoxy-1,1-dimethyl-pent-2-ynyl)-2-methylsulfanyl-acetamide]
- pest or weed control at 200 ppm (Plasmopara viticola): ≥ 60%
- pest or weed control at 200 ppm [1]: ≥ 60%
- pest or weed control at 200 ppm (Phytophthora infestans): ≥ 60%
- inhibition of growth at 20 ppm (Pythium ultimum; 48 h): ≥ 60%

Compound: CC#CC(C)(CC)NC(=O)C(Oc1cc(C)c2ncc(Br)cc2c1)SC (centres unmarked) [8(4), 2-(3-Bromo-8-methyl-quinolin-6-yloxy)-N-(1-ethyl-1-methyl-but-2-ynyl)-2-methylsulfanyl-acetamide]
- pest or weed control at 200 ppm (Plasmopara viticola): ≥ 60%
- pest or weed control at 200 ppm (Septoria nodorum): ≥ 60%

Compound: CC#CC(C)(C)NC(=O)C(Oc1cc(CC)c2ncc(Br)cc2c1)SC (centres unmarked) [34(4), 2-(3-Bromo-8-ethyl-quinolin-6-yloxy)-N-(1,1-dimethyl-but-2-ynyl)-2-methylsulfanyl-acetamide]
- pest or weed control at 200 ppm (Plasmopara viticola): ≥ 60%
- pest or weed control at 200 ppm [1]: ≥ 60%
- inhibition of growth at 20 ppm (Pythium ultimum; 48 h): ≥ 60%

Compound: CCC#CC(C)(C)NC(=O)C(Oc1cc(C)c2ncc(Br)cc2c1)SC (centres unmarked) [4(4), 2-(3-Bromo-8-methyl-quinolin-6-yloxy)-N-(1,1-dimethyl-pent-2-ynyl)-2-methylsulfanyl-acetamide]
- pest or weed control at 200 ppm (Plasmopara viticola): ≥ 60%

Compound: COCCOCOCC#CC(C)(C)NC(=O)C(Oc1cc(C)c2ncc(Br)cc2c1)SC (centres unmarked) [32(4), 2-(3-Bromo-8-methyl-quinolin-6-yloxy)-N-[4-(2-methoxy-ethoxymethoxy)-1,1-dimethyl-but-2-ynyl]-2-methylsulfanyl-acetamide]
- pest or weed control at 200 ppm (Plasmopara viticola): ≥ 60%
- pest or weed control at 200 ppm [1]: ≥ 60%
- pest or weed control at 200 ppm (Phytophthora infestans): ≥ 60%

Compound: CCc1cc(OC(SC)C(=O)NC(C)(C)C#CCOC)cc2cc(Br)cnc12 (centres unmarked) [35(4), 2-(3-Bromo-8-ethyl-quinolin-6-yloxy)-N-(4-methoxy-1,1-dimethyl-but-2-ynyl)-2-methylsulfanyl-acetamide]
- pest or weed control at 200 ppm (Plasmopara viticola): ≥ 60%
- pest or weed control at 200 ppm [1]: ≥ 60%
- pest or weed control at 200 ppm (Pyricularia oryzae): ≥ 60%
- pest or weed control at 200 ppm (Septoria nodorum): ≥ 60%
- pest or weed control at 200 ppm (Phytophthora infestans): ≥ 60%
- inhibition of growth at 20 ppm (Pythium ultimum; 48 h): ≥ 60%

Compound: C#CC(C)(NC(=O)C(Oc1cc(C)c2ncc(Br)cc2c1)SC)C(C)C (centres unmarked) [12(4), 2-(3-Bromo-8-methyl-quinolin-6-yloxy)-N-(1-isopropyl-1-methyl-prop-2-ynyl)-2-methylsulfanyl-acetamide]
- pest or weed control at 200 ppm (Plasmopara viticola; [2]): ≥ 60%
- pest or weed control at 200 ppm (Septoria nodorum; [3]): ≥ 60%

Compound: C#CC(C)(C)NC(=O)C(Oc1cc(C)c2ncc(Br)cc2c1)SC (centres unmarked) [2(4), 2-(3-Bromo-8-methyl-quinolin-6-yloxy)-N-(1,1-dimethyl-prop-2-ynyl)-2-methylsulfanyl-acetamide]
- pest or weed control at 200 ppm (Plasmopara viticola; [2]): ≥ 60%
- pest or weed control at 200 ppm [1, 3]: ≥ 60%
- pest or weed control at 200 ppm (Pyricularia oryzae): ≥ 60%
- pest or weed control at 200 ppm (Septoria nodorum; [3]): ≥ 60%
- pest or weed control at 200 ppm (Phytophthora infestans): ≥ 60%
- inhibition of growth at 20 ppm (Pythium ultimum; [7]): ≥ 60%
